Like-named read-outs stand apart in the source and are kept apart here.
What was measured:
[1] = system: HUVEC cells; test: VEGF dependent cell proliferation (MTS); type: cell-based; details: Homo sapiens, VEGF 165 (50ng/ml), 72 hours, serum-free medium, read-out: Gl50 nM (VEGF ligand-dependent cell proliferation)
Experimental: HUVEC cells were plated into 96-well plates at 6,000 per well and after 24 hours incubated with serum-free medium for 2 hours. Compounds to be tested and VEGF 165 (50ng/ml) were added and incubated for 72 hours in serum-free medium. The effects on cell proliferation were determined by MTS method (Promega) according to the instruction. Incubation was performed for 2 hours at 37°C in CO2 incubator, and absorbance at 490nm was determined using an ELISA plate reader.

[2] = system: MCF-7; test: Tumor cell proliferation (MTS), MCF-7; type: cell-based; details: Homo sapiens, MCF7; MCF-7, 72 hours; read-out: Gl50 µM in MCF-7
Experimental: (§1) Tumor cells were trypsinized and plated into 96-well plates at 3,000 per well and incubated in complete medium with 10% FBS for 24 hours. Compounds to be tested and vehicle control were added, and the final concentration of compound is in the range of 100 nmol/L to 100 µmol/L. The compounds were incubated for 72 hours in complete medium. The MTS reagent (Promega) was added according to the instruction, incubated for 2 hours at 37°C in CO2 incubator. Then absorbance at 490nm is read using an ELISA plate reader.

[3] = system: A549; test: Tumor cell proliferation (MTS), A549; type: cell-based; details: Homo sapiens; A549, 72 hours; read-out: Gl50 µM in A549
Experimental: as §1

[4] = system: Class I HDAC; test: HDAC subtype selectivity reporter gene assay (P21 reporter, HeLa cells); type: cell-based; details: Homo sapiens, read-out: Class I HDAC (P21 reporter assay) Fold Induction at 10µM
Experimental: Different HDAC subtypes can bind with different transcriptional factors and involve in expression regulation of various genes. Suitable regulation elements for transcriptional factors are selected to construct reporter genes, which can be used to evaluate the selective inhibition of inhibors on HDAC subtypes. Briefly, HeLa cells were seeded in 96-well plates the day before transfection to give a confluence of 50-80% when transfection. Cells were transfected with one of reporter gene plasmid containing a p21-promoter sequence or response element upstream of a luciferase gene construct using FuGene6 transfection reagent according to the manufacturer's instruction (Roche). For normalizing the transfection efficiency, a GFP expression plasmid was cotransfected. After 24 hours compounds or the vehicle control (DMSO) were added. 24 hours later the cells were harvested and lysed, and the amount of the luciferase was evaluated using luciferase assay kits (Promega) according to the manufacturer's instructions.

[5] = system: HCT-8; test: Tumor cell proliferation (MTS), HCT-8; type: cell-based; details: Homo sapiens; HCT-8, 72 hours; read-out: Gl50 µM in HCT-8
Experimental: as §1

[6] = system: total HDAC enzyme; test: In vitro total HDAC enzyme activity (HDAC Fluorimetric Assay/Drug Discovery Kit, HeLa cell nuclear extract); type: biochemical
Experimental: The in vitro total HDAC enzyme activity was determined by HDAC Fluorimetric Assay/Drug Discovery Kit (BIOMOL) according to manufacture's instruction. The principle of the experiment is as follows: under the action of histone deacetylase (in the experiment, HeLa cell nuclear extract, which was rich in a variety of subtypes of HDAC, was used), an acetyl group is removed from a special substrate Fluor de Lys, thus the free amino is exposed. Upon Developer is added, the substrate will produce fluorescence. For the fluorescence, excitation wavelength is 360nm, and emission wavelength is 460nm. More fully the substrate deacetylated, more higher the fluorescence induced. In the absence of inhibitors, the fluorescence value is taken as the control; when inhibitor is existed, fluorescence value induced will be reduced, while in the case no enzyme is existed (corresponding to the completely inhibition of enzyme activity) the fluorescence value is blank. Generally, after suppression the fluorescence values will be between the control and blank. When analysis is made, blank will be used as 0, and the control will be used as 1. Smaller value means higher inhibitory activity. 1. Add Assay buffer, diluted trichostatin A and test inhibitor to appropriate wells of the microtiter plate. Following table lists the amounts used for each regent of various assay types.
2. Add diluted HeLa nucleoprotein extract to all wells except those that are marked as "blank". 3. Allow diluted Fluor de Lys™ Substrate and the samples in the microtiter plate to equilibrate to 25°C. 4. Initiate HDAC reactions by adding diluted substrate (25 µl) to each well and mixing thoroughly. 5. Allow reactions to proceed for 30 minutes and then stop them by addition of Fluor de Lys™ Developer (50 µl). Incubate plate at room temperature (25°C) for 10-15 min. 6. Read fluorescence of samples on a microtiter-plate reading fluorimeter at a excitation wavelength of 369 nm and a emitted wavelength of 451 nm.

[7] = system: Bel-7402; test: Tumor cell proliferation (MTS), Bel-7402; type: cell-based; details: Homo sapiens; Bel-7402, 72 hours; read-out: Gl50 µM in Bel-7402
Experimental: as §1

[8] = target: T1, human PDGFRβ (Homo sapiens, UniProt P09619); test: PDGF dependent cell proliferation (MTS); type: cell-based
T1 construct: expressed in transfected cells
Experimental: NIH-3T3 mouse fibroblasts cell line engineered to stably express human PDGFRβ was constructed and used to evaluate PDGF dependent cell proliferation. PDGFRβ NIH-3T3 cells were plated into 96-well plates at 5,000 per well and incubated overnight with serum-free medium after 24 hours. Compounds to be tested and PDGF BB (50ng/ml) were added and incubated for 72 hours in serum-free medium. The effects on proliferation were determined by MTS method (Promega) according to the instruction. Incubation was performed for 2 hours at 37°C in CO2 incubator, and absorbance at 490nm was measured using an ELISA plate reader.

[9] = system: A-498; test: Tumor cell proliferation (MTS), A-498; type: cell-based; details: Homo sapiens, A498; A-498, 72 hours; read-out: Gl50 µM in A-498
Experimental: as §1

[10] = system: human HCT-8 colon cancer; test: Nude mice tumor transplanted from human HCT-8 colon cancer (Example 55); type: in vivo; details: for TGI (%): tumor growth inhibition
Experimental: Female nu/nu mice of 18∼20g were fed by normal diet for 3 days. Then the cultured HCT-8 human colon cancer cells were implanted into the armpit of 50 mice. […] One group was treated with vehicle. One group was treated with Sutent, the positive control drug. Two groups were treated with compound 33 at different concentrations. The other two groups were treated with compound 37 at different concentrations. Compound 33 was administered twice a day with an interval of 6 hours. For other groups, administration was performed once a day. Each group was dosed orally for 20 days. […] The tumor growth inhibition of each group was calculated using the following formula: {[(the average tumor weight of control group)-(the average tumor weight of test group)]/(the average tumor weight of control group)} × 100%. [formula] The experimental results are shown in Table 9 and Figure 5.

[11] = system: human SSMC7721 liver cancer; test: Nude mice tumor transplanted from human SSMC7721 liver cancer (Example 56); type: in vivo; details: for TGI (%): tumor growth inhibition
Experimental: Female nu/nu mice of 18∼20g were fed by normal diet for 3 days. Then the cultured SSMC7721 human liver cancer cells were implanted into the armpit of 50 mice. […] Each group had 8 mice. One group was treated with vehicle. One group was treated with Sutent, the positive control drug. Two groups were treated with compound 33 at different concentrations. The other two groups were treated with compound 37 at different concentrations. Each group was dosed orally once a day for 30 days. […] The tumor growth inhibition of each group was calculated using the following formula: {[(the average tumor weight of control group)-(the average tumor weight of test group)]/(the average tumor weight of control group)} × 100%. [formula] The experimental results are shown in Table 10 and Figure 6. Table10

[12] = PDGFRβ NIH-3T3 cells, PDGF BB (50ng/ml), 72 hours, serum-free medium; read-out: Gl50 nM (PDGF ligand-dependent cell proliferation)
[13] = 30 mg/kg orally once a day for 20 days
[14] = 60 mg/kg orally once a day for 20 days
[15] = 30 mg/kg orally once a day for 30 days
[16] = 60 mg/kg orally once a day for 30 days

T1 sequence (P09619 33-1106): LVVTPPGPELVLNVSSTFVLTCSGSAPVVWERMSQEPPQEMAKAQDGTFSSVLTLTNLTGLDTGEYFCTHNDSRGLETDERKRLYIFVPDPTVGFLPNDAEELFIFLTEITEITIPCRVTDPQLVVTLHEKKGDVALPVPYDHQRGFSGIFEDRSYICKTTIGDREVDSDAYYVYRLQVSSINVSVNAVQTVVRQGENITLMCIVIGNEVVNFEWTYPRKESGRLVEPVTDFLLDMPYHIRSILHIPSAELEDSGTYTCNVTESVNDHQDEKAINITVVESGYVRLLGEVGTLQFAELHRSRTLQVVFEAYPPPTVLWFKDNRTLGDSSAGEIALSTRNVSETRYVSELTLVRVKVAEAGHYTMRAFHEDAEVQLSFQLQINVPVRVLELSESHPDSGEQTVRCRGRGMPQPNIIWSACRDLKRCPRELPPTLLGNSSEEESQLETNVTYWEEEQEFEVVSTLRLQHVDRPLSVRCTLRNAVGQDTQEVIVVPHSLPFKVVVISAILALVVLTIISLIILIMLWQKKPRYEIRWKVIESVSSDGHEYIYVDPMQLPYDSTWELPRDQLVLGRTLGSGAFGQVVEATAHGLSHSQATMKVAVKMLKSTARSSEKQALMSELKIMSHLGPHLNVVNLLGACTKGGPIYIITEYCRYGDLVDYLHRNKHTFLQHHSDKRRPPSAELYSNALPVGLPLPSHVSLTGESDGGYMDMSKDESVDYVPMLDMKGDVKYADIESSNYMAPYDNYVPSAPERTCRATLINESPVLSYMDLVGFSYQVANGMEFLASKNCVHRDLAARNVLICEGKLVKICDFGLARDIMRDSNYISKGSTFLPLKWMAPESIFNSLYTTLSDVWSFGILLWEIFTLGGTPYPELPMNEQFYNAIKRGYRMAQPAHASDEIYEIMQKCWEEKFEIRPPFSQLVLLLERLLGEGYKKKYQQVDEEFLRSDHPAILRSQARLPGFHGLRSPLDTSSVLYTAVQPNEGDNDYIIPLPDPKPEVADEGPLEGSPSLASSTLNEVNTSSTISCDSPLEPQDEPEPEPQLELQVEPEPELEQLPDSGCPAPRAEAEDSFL

For `COc1ccc2c(Oc3ccc4c(C(=O)Nc5ccc(F)cc5N)cccc4c3)ccnc2c1` [Compound 32, N-(2-amino-4-fluorophenyl)-6-(7-methoxyquinolin-4-yloxy)-1-naphthamide], the IC50 [1] was 0.002 µM, the IC50 [2] was 15.9 µM and the IC50 [3] was 8.3 µM. The fold induction at 10 µM ([4]; 10µM, HeLa cells, 24 hours) was 1.8, the IC50 [5] was 6.6 µM and the “% inhibition of total HDAC enzyme activity at 30µM” value (“% inhibition” for short) [6] was 21.7%. It also gave an IC50 [7] of 17.3 µM, an IC50 [8, 12] of 0.02 µM and an IC50 [9] of 7.5 µM.
Work on `COc1cc2nccc(Oc3ccc4c(C(=O)Nc5ccccc5N)cccc4c3)c2cc1OC` [Compound 35, N-(2-aminophenyl)-6-(6,7-dimethoxyquinolin-4-yloxy)-1-naphthamide] yielded an IC50 [1] of 0.001 µM, an IC50 [2] of 13.3 µM and an IC50 [3] of 7.7 µM. The fold induction at 10 µM ([4]; 10µM, HeLa cells, 24 hours) was 1.2, the IC50 [5] was 8.9 µM and the “% inhibition” value [6] was 19.3%. The IC50 [7] was 19.5 µM, the IC50 [8, 12] was 0.005 µM and the IC50 [9] was 9.1 µM.
`COc1cc2nccc(Oc3ccc4c(C(=O)Nc5ccc(F)cc5N)cccc4c3)c2cc1OC` [Compound 36, N-(2-amino-4-fluorophenyl)-6-(6,7-dimethoxyquinolin-4-yloxy)-1-naphthamide] gave an IC50 [1] of 0.002 µM, an IC50 [2] of 8.9 µM and an IC50 [3] of 7.4 µM. For the same compound, the fold induction at 10 µM ([4]; 10µM, HeLa cells, 24 hours) was 1.2, the IC50 [5] was 4.1 µM and the “% inhibition” value [6] was 14.4%. For the same compound, the IC50 [7] was 12.1 µM, the IC50 [8, 12] was 0.003 µM and the IC50 [9] was 4.2 µM.
`COc1cc2nccc(Oc3ccc4c(C(=O)NCc5ccc(C(=O)Nc6ccccc6N)cc5)cccc4c3)c2cc1OC` [Compound 37, N-(4-((2-aminophenyl)carbamoyl)benzyl)-6-(6,7-dimethoxyquinolin-4-yloxy)-1-naphthamide] was tested, and the IC50 [1] was 0.004 µM, the IC50 [2] was 30 µM and the IC50 [3] was 30 µM. For the same compound, the “Tumor weight” value [10, 13] was 3.89 ± 1.19 g, the “Body weight (g) end” value [10, 13] was 23.6 ± 2.2 g and the “Body weight (g) start” value [10, 13] was 20.6 ± 0.8 g. The “TGI (%)” value [10, 13] was 36.5%, the “Tumor weight” value [10, 14] was 3.36 ± 0.80 g and the “Body weight (g) end” value [10, 14] was 24.1 ± 2.1 g. The “Body weight (g) start” value [10, 14] was 20.8 ± 0.8 g, the “TGI (%)” value [10, 14] was 45.1% and the fold induction at 10 µM ([4]; 10µM, HeLa cells, 24 hours) was 3. The IC50 [5] was 30 µM, the “% inhibition” value [6] was 35.9% and the IC50 [7] was 30 µM. For the same compound, the “Tumor weight” value [11, 15] was 1.45 ± 0.58 g, the “Body weight (g) end” value [11, 15] was 25.3 ± 0.9 g and the “Body weight (g) start” value [11, 15] was 20.7 ± 1.2 g. For the same compound, the “TGI (%)” value [11, 15] was 35.6%, the “Tumor weight” value [11, 16] was 1.28 ± 0.51 g and the “Body weight (g) end” value [11, 16] was 24.3 ± 1.1 g. For the same compound, the “Body weight (g) start” value [11, 16] was 21.4 ± 0.6 g, the “TGI (%)” value [11, 16] was 43.3% and the IC50 [8, 12] was 0.159 µM. The IC50 [9] was 30 µM.
With `COc1cc2nccc(Oc3ccc4c(C(=O)NCc5ccc(C(=O)Nc6ccccc6N)cn5)cccc4c3)c2cc1OC` [Compound 38] the IC50 [1] was 0.025 µM, the IC50 [2] was 9.4 µM and the IC50 [3] was 30 µM. For the same compound, the fold induction at 10 µM ([4]; HeLa, 24 h) was 3.1, the IC50 [5] was 8 µM and the “% inhibition” value [6] was 39.3%. It also gave an IC50 [7] of 30 µM, an IC50 ([8]; read-out: Gl50 nM (PDGF ligand-dependent cell proliferation); PDGFRβ NIH-3T3 cells, PDGF BB (50ng/ml), 72 hours, serum-free medium) of 0.074 µM and an IC50 [9] of 6.9 µM.

Source: EP2439195B1, “NAPHTHALENE CARBOXAMIDE DERIVATIVES AS INHIBITORS OF PROTEIN KINASE AND HISTONE DEACETYLASE, PREPARATION METHODS AND USES THEREOF” (Shenzhen Chipscreen Biosciences, Ltd., priority 2009, dated 2010)
